{"source": "BindingDB's records for doi:10.7270/Q2Q52N1X", "about": "(Vanderbilt Screening Center for GPCRs, Ion Channels and …, 2009)", "data": [{"biological_target": "T1, Solute carrier family 12 member 5 (Homo sapiens, UniProt Q9H2X9)", "T1 sequence (Q9H2X9 whole entry)": "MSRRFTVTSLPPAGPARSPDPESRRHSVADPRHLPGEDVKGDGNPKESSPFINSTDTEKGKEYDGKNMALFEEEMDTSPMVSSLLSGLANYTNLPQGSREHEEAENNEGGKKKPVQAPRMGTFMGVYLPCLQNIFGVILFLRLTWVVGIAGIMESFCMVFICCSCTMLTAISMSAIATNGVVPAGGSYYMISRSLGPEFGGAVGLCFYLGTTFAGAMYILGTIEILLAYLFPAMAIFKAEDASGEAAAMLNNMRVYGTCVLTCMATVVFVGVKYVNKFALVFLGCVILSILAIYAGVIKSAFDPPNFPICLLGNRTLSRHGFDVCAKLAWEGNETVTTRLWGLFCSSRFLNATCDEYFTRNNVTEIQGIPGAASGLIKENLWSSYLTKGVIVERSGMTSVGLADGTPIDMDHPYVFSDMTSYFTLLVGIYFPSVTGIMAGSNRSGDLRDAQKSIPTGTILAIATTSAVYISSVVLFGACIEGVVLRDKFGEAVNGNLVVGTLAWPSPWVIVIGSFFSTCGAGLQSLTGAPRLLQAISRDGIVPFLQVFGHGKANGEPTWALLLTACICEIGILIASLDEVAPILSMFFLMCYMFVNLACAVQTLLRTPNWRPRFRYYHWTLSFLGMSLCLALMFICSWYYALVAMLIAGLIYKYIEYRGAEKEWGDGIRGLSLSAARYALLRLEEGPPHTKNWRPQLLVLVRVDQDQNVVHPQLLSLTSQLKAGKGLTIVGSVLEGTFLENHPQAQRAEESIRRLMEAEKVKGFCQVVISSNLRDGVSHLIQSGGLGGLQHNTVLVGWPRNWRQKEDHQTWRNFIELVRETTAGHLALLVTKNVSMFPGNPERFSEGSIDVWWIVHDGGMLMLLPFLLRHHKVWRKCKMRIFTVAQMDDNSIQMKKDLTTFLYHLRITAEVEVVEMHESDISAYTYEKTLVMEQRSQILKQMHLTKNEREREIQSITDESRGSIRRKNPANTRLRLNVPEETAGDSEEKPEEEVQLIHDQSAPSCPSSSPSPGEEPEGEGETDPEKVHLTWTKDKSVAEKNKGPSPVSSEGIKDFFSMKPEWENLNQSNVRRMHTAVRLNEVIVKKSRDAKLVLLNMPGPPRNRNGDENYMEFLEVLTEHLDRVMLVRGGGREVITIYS", "assay": "KCC2 modulator potency by thallium flux, dose response, cell-based, HEK293 KCC2, FluoZin-2 fluorescence (AID 1736)", "conditions": "not given", "units": {"EC50": "µM"}, "values": [{"smiles": "Cc1onc(-c2ccccc2Cl)c1C(=O)NC(=S)Nc1ccc(C(C)C)cc1", "note": "[3-(2-chlorophenyl)-5-methyl-N-(p-cumenylthiocarbamoyl)isoxazole-4-carboxamide]", "EC50": 0.291}, {"smiles": "O=C(NCCCCc1ccccc1)C1CC(c2ccccc2[N+](=O)[O-])=NO1", "note": "(stereo unspecified) [3-(2-nitrophenyl)-N-(4-phenylbutyl)-2-isoxazoline-5-carboxamide]", "EC50": 8.63}, {"smiles": "O=C(CCSCCc1ccccn1)Nc1ccc(Cc2ccncc2)cc1", "note": "[3-(2-pyridin-2-ylethylsulfanyl)-N-[4-(pyridin-4-ylmethyl)phenyl]propanamide]", "EC50": 8.25}, {"smiles": "O=S1(=O)N=C(N2CCN(Cc3ccccc3)CC2)c2ccccc21", "note": "[3-(4-Benzyl-piperazin-1-yl)-benzo[d]isothiazole 1,1-dioxide]", "EC50": 3.19}, {"smiles": "O=C(Cn1c(-c2ccc(Cl)cc2)noc1=O)N1CCN(c2ccccc2F)CC1", "note": "[3-(4-Chloro-phenyl)-4-{2-[4-(2-fluoro-phenyl)-piperazin-1-yl]-2-oxo-ethyl}-4H-[1,2,4]oxadiazol-5-one]", "EC50": 6.07}, {"smiles": "CCN(CC)c1ccc2c(C)c(-c3ccc(N)cc3)c(=O)oc2c1", "note": "[3-(4-aminophenyl)-7-(diethylamino)-4-methyl-1-benzopyran-2-one]", "EC50": 1.08}, {"smiles": "CCOc1ccc(C(CC(=O)O)NC(=O)C(Sc2ccccc2)c2ccccc2)cc1", "note": "(stereo unspecified) [3-(4-ethoxyphenyl)-3-[(2-phenyl-2-phenylsulfanyl-ethanoyl)amino]propanoic acid]", "EC50": 13.6}, {"smiles": "CS/C(=N\\Cc1ccc(F)cc1)NS(=O)(=O)c1cccs1", "note": "[3-(4-fluorobenzyl)-2-methyl-1-(2-thienylsulfonyl)isothiourea]", "EC50": 0.89}, {"smiles": "O=C(Cn1cnc2c(nnn2Cc2ccc(F)cc2)c1=O)N1CCN(c2ccccc2)CC1", "note": "[3-(4-fluorobenzyl)-6-[2-keto-2-(4-phenylpiperazino)ethyl]triazolo[4,5-d]pyrimidin-7-one]", "EC50": 8.12}, {"smiles": "Cc1ccc(OCCC(=O)OCC(=O)N2c3ccccc3CC2C)cc1", "note": "(stereo unspecified) [3-(4-methylphenoxy)propanoic acid [2-(2-methyl-2,3-dihydroindol-1-yl)-2-oxoethyl] ester]", "EC50": 4.4}, {"smiles": "CC(NC(=O)CCc1nnc(-c2ccc(-c3ccccc3)cc2)o1)c1nccs1", "note": "(stereo unspecified) [3-(5-biphenyl-4-yl-1,3,4-oxadiazol-2-yl)-N-[1-(1,3-thiazol-2-yl)ethyl]propanamide]", "EC50": 4.79}, {"smiles": "COc1cc(OC)c(C2=NOC(C(=O)NCCc3ccccc3)C2)cc1Cl", "note": "(stereo unspecified) [3-(5-chloranyl-2,4-dimethoxy-phenyl)-N-(2-phenylethyl)-4,5-dihydro-1,2-oxazole-5-carboxamide]", "EC50": 6.25}, {"smiles": "CCOc1ccc2nc(Sc3cc(O)n(-c4cccc(OC)c4)c3O)sc2c1", "note": "[3-(6-Ethoxy-benzothiazol-2-ylsulfanyl)-1-(3-methoxy-phenyl)-pyrrolidine-2,5-dione]", "EC50": 9.38}, {"smiles": "COC(=O)c1sccc1NC(=S)OC", "note": "[3-(methoxycarbothioylamino)thiophene-2-carboxylic acid methyl ester]", "EC50": 3.94}, {"smiles": "O=C(Nc1ccc(Cc2ccncc2)cc1)c1cccc([N+](=O)[O-])c1", "note": "[3-Nitro-N-(4-pyridin-4-ylmethyl-phenyl)-benzamide]", "EC50": 9.28}, {"smiles": "O=C(O)CCn1c(SCc2cccc3ccccc23)nc2ccccc21", "note": "[3-[2-(1-naphthalenylmethylthio)-1-benzimidazolyl]propanoic acid]", "EC50": 0.619}, {"smiles": "O=C(Cn1nnc2c(cnn2-c2ccccc2)c1=O)N1CCN(c2ccccc2F)CC1", "note": "[3-[2-[4-(2-fluorophenyl)-1-piperazinyl]-2-oxoethyl]-7-phenyl-4-pyrazolo[3,4-d]triazinone]", "EC50": 15.6}, {"smiles": "O=C(O)CCc1cc(I)c(Oc2ccc(O)c(I)c2)c(I)c1", "note": "[3-[4-(4-hydroxy-3-iodophenoxy)-3,5-diiodophenyl]propanoic acid]", "EC50": 11.1}, {"smiles": "O=C(O)CCN(Cc1ccccc1)S(=O)(=O)c1c(Cl)cccc1Cl", "note": "[3-[(2,6-dichlorophenyl)sulfonyl-(phenylmethyl)amino]propanoic acid]", "EC50": 53.1}, {"smiles": "Cc1ccc(S(=O)(=O)N(CCC(=O)O)Cc2ccc(Cl)cc2)cc1", "note": "[3-[(4-chlorobenzyl)-tosyl-amino]propionic acid]", "EC50": 0.356}, {"smiles": "O=C(OCC(=O)N1CCN(C(=O)c2ccco2)CC1)c1sc2ccccc2c1Cl", "note": "[3-chloro-1-benzothiophene-2-carboxylic acid [2-[4-[2-furanyl(oxo)methyl]-1-piperazinyl]-2-oxoethyl] ester]", "EC50": 0.599}, {"smiles": "CCOc1cc(S(=O)(=O)NCc2ccccc2)ccc1F", "note": "[3-ethoxy-4-fluoranyl-N-(phenylmethyl)benzenesulfonamide]", "EC50": 4.68}, {"smiles": "COCCNS(=O)(=O)c1ccc(-c2ccc(Cl)cc2)cc1", "note": "[4'-chloro-N-(2-methoxyethyl)-4-biphenylsulfonamide]", "EC50": 7.84}, {"smiles": "Cc1c(N=C2Nc3cccc4cccc2c34)c(=O)n(-c2ccccc2)n1C", "note": "[4-(2-benzo[cd]indolylamino)-1,5-dimethyl-2-phenyl-3-pyrazolone]", "EC50": 1.89}, {"smiles": "O=C(OCC(=O)N1CCc2ccccc2C1)c1ccc(N2CCOCC2)c([N+](=O)[O-])c1", "note": "[4-(4-morpholinyl)-3-nitrobenzoic acid [2-(3,4-dihydro-1H-isoquinolin-2-yl)-2-oxoethyl] ester]", "EC50": 5.9}, {"smiles": "O=C(NC(=S)NNC(=O)c1cnccn1)c1ccc(Cl)cc1", "note": "[4-Chloro-N-[N'-(pyrazine-2-carbonyl)-hydrazinocarbothioyl]-benzamide]", "EC50": 13}, {"smiles": "O=C(c1cc(COc2c(F)cccc2F)on1)N1CCC(c2ccncc2)CC1", "note": "[4-[1-({5-[(2,6-difluorophenoxy)methyl]isoxazol-3-yl}carbonyl)piperidin-4-yl]pyridine]", "EC50": 12.2}, {"smiles": "COc1ccc(-c2cc(CCCC(=O)NCCc3ccccc3)no2)cc1", "note": "[4-[5-(4-methoxyphenyl)-1,2-oxazol-3-yl]-N-(2-phenylethyl)butanamide]", "EC50": 1.84}, {"smiles": "Cc1n[nH]c(O)c1C(c1ccc(-c2ccc(F)cc2)o1)c1c(C)n[nH]c1O", "note": "[4-[[5-(4-fluorophenyl)furan-2-yl]-(3-methyl-5-oxo-1,2-dihydropyrazol-4-yl)methyl]-5-methyl-1,2-dihydropyrazol-3-one]", "EC50": 14.3}, {"smiles": "CCOc1cc(Br)ccc1S(=O)(=O)NCc1ccccc1", "note": "[4-bromanyl-2-ethoxy-N-(phenylmethyl)benzenesulfonamide]", "EC50": 1.36}, {"smiles": "Cc1nn(-c2ccc(F)cc2)c(C)c1NS(=O)(=O)c1ccc(Cl)cc1", "note": "[4-chloranyl-N-[1-(4-fluorophenyl)-3,5-dimethyl-pyrazol-4-yl]benzenesulfonamide]", "EC50": 112}, {"smiles": "O=S(=O)(Nc1nc2ccccc2nc1N1CCN(c2ccccn2)CC1)c1ccc(Cl)cc1", "note": "[4-chloranyl-N-[3-(4-pyridin-2-ylpiperazin-1-yl)quinoxalin-2-yl]benzenesulfonamide]", "EC50": 9.37}, {"smiles": "COc1ccc(S(=O)(=O)N(C)CC(=O)N2CCN(Cc3ccccc3)CC2)cc1C", "note": "[4-methoxy-N,3-dimethyl-N-[2-oxidanylidene-2-[4-(phenylmethyl)piperazin-1-yl]ethyl]benzenesulfonamide]", "EC50": 3.52}]}, {"biological_target": "T1, Solute carrier family 12 member 5", "assay": "KCC2 modulator potency by thallium flux, dose response, cell-based, HEK293 KCC2, FluoZin-2 fluorescence (AID 1736)", "conditions": "inactive by the depositor's call", "units": {"EC50": "µM"}, "values": [{"smiles": "Cc1ccc(C=Nn2c(-c3ccc(Cl)cc3)n[nH]c2=S)s1", "note": "[3-(4-chlorophenyl)-4-[(5-methyl-2-thiophenyl)methylideneamino]-1H-1,2,4-triazole-5-thione]", "EC50": 188}, {"smiles": "Cc1cc(Cl)ccc1Oc1ccccc1C(=O)CC#N", "note": "[3-[2-(4-chloranyl-2-methyl-phenoxy)phenyl]-3-oxidanylidene-propanenitrile]", "EC50": 233}, {"smiles": "COc1ccc(S(=O)(=O)N(CCC(=O)O)Cc2ccccc2)cc1", "note": "[3-[(4-methoxyphenyl)sulfonyl-(phenylmethyl)amino]propanoic acid]", "EC50": 6.36}, {"smiles": "O=c1cc(CSc2nnnn2-c2ccccc2)nc2scc(-c3ccccc3)n12", "note": "[3-phenyl-7-[(1-phenyl-1,2,3,4-tetrazol-5-yl)sulfanylmethyl]-[1,3]thiazolo[3,2-a]pyrimidin-5-one]", "EC50": 4610}, {"smiles": "O=C(Nc1ccc(Cc2ccncc2)cc1)c1ccc(N2CCOCC2)c([N+](=O)[O-])c1", "note": "[4-(4-morpholinyl)-3-nitro-N-[4-(4-pyridinylmethyl)phenyl]benzamide]", "EC50": 101}, {"smiles": "O=C(Cn1c(-c2ccccc2)noc1=O)N1CCC(Cc2ccccc2)CC1", "note": "[4-[2-(4-benzylpiperidin-1-yl)-2-oxoethyl]-3-phenyl-1,2,4-oxadiazol-5-one]", "EC50": 39.6}, {"smiles": "CCC(C)(C)n1nnnc1C(c1ccc(O)c(OC)c1)N1CCN(c2nc3ccccc3s2)CC1", "note": "(stereo unspecified) [4-[(1-tert-amyltetrazol-5-yl)-[4-(1,3-benzothiazol-2-yl)piperazino]methyl]-2-methoxy-phenol]", "EC50": 9.05}, {"smiles": "CC(C)c1onc(C(=O)NCCc2ccccc2)c1[N+](=O)[O-]", "note": "[4-nitro-N-(2-phenylethyl)-5-propan-2-yl-1,2-oxazole-3-carboxamide]", "EC50": 20.6}]}]}
